Where “and” joins values, the source holds several entries; their conditions need not be identical. Equal entries are not always repeated.
Legend:
[1] = target: T1, Alpha-1A adrenergic receptor (Homo sapiens, UniProt P35348); assay type: functional, cell-based
T1 sequence (P35348 whole entry): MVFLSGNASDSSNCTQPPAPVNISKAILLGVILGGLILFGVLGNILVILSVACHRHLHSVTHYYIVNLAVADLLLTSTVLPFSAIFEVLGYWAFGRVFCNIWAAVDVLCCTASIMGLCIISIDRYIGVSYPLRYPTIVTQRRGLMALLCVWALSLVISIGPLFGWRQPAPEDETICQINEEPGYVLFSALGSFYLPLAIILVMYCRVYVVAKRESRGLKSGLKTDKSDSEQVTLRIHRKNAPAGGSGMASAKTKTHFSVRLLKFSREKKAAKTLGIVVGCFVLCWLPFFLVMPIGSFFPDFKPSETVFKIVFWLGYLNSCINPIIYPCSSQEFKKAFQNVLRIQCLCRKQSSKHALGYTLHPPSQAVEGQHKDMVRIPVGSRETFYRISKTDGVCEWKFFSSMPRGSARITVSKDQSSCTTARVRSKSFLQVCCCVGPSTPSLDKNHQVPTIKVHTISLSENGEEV

[2] = target: T2, Alpha-2A adrenergic receptor (Homo sapiens, UniProt P08913); assay type: functional, cell-based
T2 sequence (P08913 whole entry): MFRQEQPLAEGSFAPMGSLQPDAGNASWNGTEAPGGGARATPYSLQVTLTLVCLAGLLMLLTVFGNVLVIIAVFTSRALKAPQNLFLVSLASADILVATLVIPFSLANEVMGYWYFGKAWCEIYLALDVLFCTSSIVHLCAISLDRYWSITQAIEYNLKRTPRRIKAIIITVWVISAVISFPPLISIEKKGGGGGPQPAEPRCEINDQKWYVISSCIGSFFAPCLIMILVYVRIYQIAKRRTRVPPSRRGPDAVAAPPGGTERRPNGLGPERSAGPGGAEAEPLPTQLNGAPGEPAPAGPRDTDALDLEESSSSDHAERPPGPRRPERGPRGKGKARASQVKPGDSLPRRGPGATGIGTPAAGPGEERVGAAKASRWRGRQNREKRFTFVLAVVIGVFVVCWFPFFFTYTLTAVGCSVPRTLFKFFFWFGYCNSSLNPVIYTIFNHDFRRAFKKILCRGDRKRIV

[3] = target: 5-hydroxytryptamine receptor 2B (Homo sapiens, UniProt P41595); assay type: functional, cell-based
Sequence of 5-hydroxytryptamine receptor 2B (P41595 whole entry): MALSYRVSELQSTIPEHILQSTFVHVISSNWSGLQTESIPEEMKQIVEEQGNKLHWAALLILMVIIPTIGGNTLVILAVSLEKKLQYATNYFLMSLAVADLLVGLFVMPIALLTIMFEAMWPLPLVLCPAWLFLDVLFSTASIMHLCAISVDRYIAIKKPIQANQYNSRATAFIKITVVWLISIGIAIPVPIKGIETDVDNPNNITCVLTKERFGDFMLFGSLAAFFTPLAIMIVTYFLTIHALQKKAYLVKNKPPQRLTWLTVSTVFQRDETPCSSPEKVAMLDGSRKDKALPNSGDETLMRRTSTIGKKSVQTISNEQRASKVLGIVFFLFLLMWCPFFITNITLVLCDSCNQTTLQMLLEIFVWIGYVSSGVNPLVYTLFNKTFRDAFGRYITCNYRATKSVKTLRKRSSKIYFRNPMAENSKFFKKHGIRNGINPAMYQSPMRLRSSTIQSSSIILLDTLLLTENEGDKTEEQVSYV

[4] = target: T3, 5-hydroxytryptamine receptor 1A (Homo sapiens, UniProt P08908)
T3 sequence (P08908 whole entry): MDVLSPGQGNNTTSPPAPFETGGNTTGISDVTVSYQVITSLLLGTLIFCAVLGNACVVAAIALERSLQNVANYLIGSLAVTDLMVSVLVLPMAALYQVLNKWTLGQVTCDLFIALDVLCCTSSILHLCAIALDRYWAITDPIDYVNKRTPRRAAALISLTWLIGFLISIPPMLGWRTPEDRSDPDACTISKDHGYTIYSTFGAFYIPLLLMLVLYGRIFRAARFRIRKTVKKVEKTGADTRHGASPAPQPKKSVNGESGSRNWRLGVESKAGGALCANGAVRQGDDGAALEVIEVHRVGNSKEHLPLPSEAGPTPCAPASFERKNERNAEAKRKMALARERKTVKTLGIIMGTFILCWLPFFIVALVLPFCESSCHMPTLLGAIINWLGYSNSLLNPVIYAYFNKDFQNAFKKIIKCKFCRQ

[5] = target: 5-hydroxytryptamine receptor 2A (Homo sapiens, UniProt P28223); assay type: functional, cell-based
Sequence of 5-hydroxytryptamine receptor 2A (P28223 whole entry): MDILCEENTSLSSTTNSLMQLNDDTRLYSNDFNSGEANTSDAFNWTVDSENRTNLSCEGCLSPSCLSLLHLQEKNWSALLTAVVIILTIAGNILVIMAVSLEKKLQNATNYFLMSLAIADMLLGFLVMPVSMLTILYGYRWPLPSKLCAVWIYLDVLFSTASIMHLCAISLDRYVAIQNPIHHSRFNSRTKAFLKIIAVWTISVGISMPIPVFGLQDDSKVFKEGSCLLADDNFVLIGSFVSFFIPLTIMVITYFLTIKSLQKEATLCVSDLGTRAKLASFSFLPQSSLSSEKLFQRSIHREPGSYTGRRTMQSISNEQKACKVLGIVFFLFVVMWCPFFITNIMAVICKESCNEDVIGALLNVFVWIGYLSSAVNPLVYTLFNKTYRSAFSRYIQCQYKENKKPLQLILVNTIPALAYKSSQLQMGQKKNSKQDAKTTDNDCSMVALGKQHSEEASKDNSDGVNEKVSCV

[6] = target: T4, Gamma-aminobutyric acid receptor subunit alpha-1 (Rattus norvegicus, UniProt P62813)
T4 sequence (P62813 whole entry): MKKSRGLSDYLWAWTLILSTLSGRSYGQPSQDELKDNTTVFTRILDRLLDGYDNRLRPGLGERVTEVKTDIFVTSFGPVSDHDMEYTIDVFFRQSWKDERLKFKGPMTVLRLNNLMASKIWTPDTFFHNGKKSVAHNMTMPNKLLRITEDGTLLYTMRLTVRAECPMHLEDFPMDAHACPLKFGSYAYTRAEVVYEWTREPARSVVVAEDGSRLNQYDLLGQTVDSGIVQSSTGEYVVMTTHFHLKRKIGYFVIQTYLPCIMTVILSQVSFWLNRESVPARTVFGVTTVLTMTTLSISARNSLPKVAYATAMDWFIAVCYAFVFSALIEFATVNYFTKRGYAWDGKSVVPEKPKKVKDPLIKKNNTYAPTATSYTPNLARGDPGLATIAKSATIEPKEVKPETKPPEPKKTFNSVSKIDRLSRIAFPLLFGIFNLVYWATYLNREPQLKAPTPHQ

[7] = target: T5, Progesterone receptor (Homo sapiens, UniProt P06401)
T5 sequence (P06401 whole entry): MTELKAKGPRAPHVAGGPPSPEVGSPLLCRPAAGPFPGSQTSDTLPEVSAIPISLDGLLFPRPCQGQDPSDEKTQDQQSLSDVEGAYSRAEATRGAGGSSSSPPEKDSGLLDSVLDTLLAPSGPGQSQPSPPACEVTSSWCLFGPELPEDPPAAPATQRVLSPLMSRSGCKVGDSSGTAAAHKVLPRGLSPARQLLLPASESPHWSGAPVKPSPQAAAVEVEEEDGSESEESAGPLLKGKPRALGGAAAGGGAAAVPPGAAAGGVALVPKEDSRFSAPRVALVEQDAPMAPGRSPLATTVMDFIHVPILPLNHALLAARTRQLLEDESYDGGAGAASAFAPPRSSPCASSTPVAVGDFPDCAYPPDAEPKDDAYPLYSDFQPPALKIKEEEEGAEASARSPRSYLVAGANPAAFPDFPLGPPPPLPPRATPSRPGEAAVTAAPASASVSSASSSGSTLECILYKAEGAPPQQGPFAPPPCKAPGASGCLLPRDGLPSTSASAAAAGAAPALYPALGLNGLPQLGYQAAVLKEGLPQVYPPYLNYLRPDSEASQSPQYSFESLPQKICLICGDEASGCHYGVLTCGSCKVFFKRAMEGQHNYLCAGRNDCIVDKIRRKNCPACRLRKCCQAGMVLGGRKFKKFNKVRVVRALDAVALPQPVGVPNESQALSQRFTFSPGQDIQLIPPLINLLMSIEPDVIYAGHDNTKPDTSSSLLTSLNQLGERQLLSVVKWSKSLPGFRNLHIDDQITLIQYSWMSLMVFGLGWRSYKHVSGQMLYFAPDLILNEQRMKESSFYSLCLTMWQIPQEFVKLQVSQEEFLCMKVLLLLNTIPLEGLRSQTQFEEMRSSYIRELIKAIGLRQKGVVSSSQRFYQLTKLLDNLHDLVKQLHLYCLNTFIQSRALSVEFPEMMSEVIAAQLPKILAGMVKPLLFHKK

[8] = target: Histamine H3 receptor (Homo sapiens, UniProt Q9Y5N1)
Sequence of Histamine H3 receptor (Q9Y5N1 whole entry): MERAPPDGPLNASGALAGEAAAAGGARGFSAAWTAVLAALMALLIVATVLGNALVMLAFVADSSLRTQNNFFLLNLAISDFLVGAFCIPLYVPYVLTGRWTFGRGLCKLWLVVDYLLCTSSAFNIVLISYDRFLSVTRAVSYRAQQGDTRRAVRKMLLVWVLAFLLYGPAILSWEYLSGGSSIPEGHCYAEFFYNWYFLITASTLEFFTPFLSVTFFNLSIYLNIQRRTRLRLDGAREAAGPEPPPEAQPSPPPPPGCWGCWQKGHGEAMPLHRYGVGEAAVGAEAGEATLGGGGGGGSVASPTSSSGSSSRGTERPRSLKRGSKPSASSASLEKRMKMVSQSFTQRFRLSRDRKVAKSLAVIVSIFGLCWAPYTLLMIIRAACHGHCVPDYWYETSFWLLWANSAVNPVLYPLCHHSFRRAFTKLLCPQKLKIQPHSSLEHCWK

[9] = target: T4, Gamma-aminobutyric acid receptor subunit alpha-1; assay type: functional
[10] = target: Sodium-dependent dopamine transporter (Homo sapiens, UniProt Q01959)
Sequence of Sodium-dependent dopamine transporter (Q01959 whole entry): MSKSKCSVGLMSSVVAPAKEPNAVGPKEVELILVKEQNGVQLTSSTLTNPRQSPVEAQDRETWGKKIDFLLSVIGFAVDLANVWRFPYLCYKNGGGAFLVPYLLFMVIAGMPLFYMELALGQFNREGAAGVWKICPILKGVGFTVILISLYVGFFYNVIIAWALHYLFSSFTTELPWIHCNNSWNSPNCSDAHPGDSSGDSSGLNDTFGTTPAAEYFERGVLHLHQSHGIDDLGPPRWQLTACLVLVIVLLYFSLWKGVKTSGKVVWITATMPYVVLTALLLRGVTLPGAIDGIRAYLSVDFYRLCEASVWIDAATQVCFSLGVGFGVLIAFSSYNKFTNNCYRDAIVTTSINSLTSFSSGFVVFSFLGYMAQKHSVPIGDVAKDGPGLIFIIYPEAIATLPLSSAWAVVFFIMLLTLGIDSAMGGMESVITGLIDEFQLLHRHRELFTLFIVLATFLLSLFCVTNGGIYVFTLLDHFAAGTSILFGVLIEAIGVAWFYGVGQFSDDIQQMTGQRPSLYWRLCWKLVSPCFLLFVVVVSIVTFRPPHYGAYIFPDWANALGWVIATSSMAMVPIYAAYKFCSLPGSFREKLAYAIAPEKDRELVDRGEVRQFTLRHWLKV

[11] = target: Mu-type opioid receptor (Homo sapiens, UniProt P35372)
Sequence of Mu-type opioid receptor (P35372 whole entry): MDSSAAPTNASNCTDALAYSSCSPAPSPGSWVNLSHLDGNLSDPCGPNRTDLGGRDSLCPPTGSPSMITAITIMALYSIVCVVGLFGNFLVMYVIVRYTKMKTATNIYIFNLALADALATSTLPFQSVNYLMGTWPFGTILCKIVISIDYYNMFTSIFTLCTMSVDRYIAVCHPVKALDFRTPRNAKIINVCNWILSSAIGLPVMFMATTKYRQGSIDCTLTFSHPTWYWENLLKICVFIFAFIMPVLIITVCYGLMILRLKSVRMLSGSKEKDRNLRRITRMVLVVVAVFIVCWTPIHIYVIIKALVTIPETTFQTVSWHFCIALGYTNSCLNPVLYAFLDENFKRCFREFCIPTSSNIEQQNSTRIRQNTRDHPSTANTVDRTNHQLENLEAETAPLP
Note: assay procedure not described here.

SMILES	AC50 [1]	AC50 [2]	AC50 [3]	AC50 [4]	AC50 [5]	AC50 [6]	AC50 [7]	AC50 [8]	AC50 [9]	AC50 [10]	AC50 [11]
O=[N+]([O-])c1ccc(O)c2ncccc12 [NITROXOLINE]	> 30 µM	> 30 µM	> 30 µM	> 30 µM	> 30 µM	> 30 µM	> 30 µM	> 30 µM	> 30 µM	> 30 µM	
CC1OC2(CS1)CN1CCC2CC1 (configuration not stated) [CEVIMELINE]	> 30 µM	> 10 µM	> 10 µM		> 10 µM	> 10 µM			> 10 µM		> 30 µM
C[C@H](Cc1ccc(O)c(O)c1)[C@@H](C)Cc1ccc(O)c(O)c1 [MASOPROCOL]	8.4 µM and > 30 µM (2×)	> 10 µM	> 10 µM		13 µM and > 30 µM and 21 µM	> 10 µM			> 10 µM		> 30 µM
CC(C)(C)C(=O)OCC(=O)[C@H]1CC[C@H]2[C@@H]3CCC4=CC(=O)CC[C@]4(C)[C@H]3CC[C@]12C [DESOXYCORTICOSTERONE PIVALATE]	> 30 µM	> 10 µM	> 10 µM		> 10 µM	> 10 µM			> 10 µM		> 30 µM
CNCc1ccc(-c2[nH]c3cc(F)cc4c3c2CCNC4=O)cc1 [RUCAPARIB]					> 10 µM						> 30 µM
CCC1(c2ccccc2)CCC(=O)NC1=O (configuration not stated) [GLUTETHIMIDE]	> 30 µM	> 10 µM	> 10 µM		> 30 µM	> 10 µM			> 10 µM		> 30 µM
CCOC(=O)c1cncn1[C@H](C)c1ccccc1 [ETOMIDATE]	> 30 µM	> 10 µM	> 10 µM		> 10 µM						> 30 µM
CCC(=O)O[C@H]1CC[C@H]2[C@@H]3CCC4=CC(=O)CC[C@]4(C)[C@H]3CC[C@]12C [TESTOSTERONE PROPIONATE]	> 30 µM	> 10 µM	> 10 µM		> 30 µM	> 10 µM			> 30 µM		> 30 µM

From ChEMBL document CHEMBL5291721, “A preclinical secondary pharmacology resource illuminates target-adverse drug reaction associations of marketed drugs” (Nat Commun, 2023)
